Tests used:
[1] = tested on: nuclear p27 in LNCaP-S14 cells; format: cell-based, human; conditions: primary screening
[2] = target: PDGF receptor tyrosine kinase; conditions: vendor annotation of library compound (Biomol EI-215); cited from earlier work
[3] = tested on: p27 protein levels in LNCaP-S14 cells; test: Immunoblot quantification of p27, LNCaP-S14; format: cell-based, human; conditions: LNCaP-S14, 24 h; SMIPs 40 μM, MG132 20 μM, bortezomib 100 nM
Protocol: (§1) Total cell lysate from cells treated with vehicle (DMSO) or compounds were obtained by incubating cells in lysis buffer (25 mM Tris-HCl pH 7.4, 150 mM NaCl, 0.5% Triton X-100, protease inhibitors) for 15 min at 4°C. The supernatant was collected by centrifugation and the amount of protein was determined with a Bio-Rad protein assay (Bio-Rad) using BSA as standard. Equal amounts of protein were subjected to SDS-PAGE (4%-20% gels, Invitrogen) and transferred to PVDF membranes. The membranes were blocked with TBST (50 mM Tris-HCl pH 7.5, 150 mM NaCl, 0.05% Tween-20) containing 5% non-fat dry milk or bovine serum albumin (BSA) for 1 h at room temperature, followed by incubation in primary antibodies 4°C overnight. Membranes were washed and incubated with secondary antibodies conjugated to HRP (Jackson ImmunoResearch Laboratories) for 1 h at room temperature. Signals were visualized using the ECL Western Blotting Substrate (Pierce Biotechnology, IL, USA) according to the manufacturer's instructions. Membranes were stripped using Restore™ Western Blot Stripping Buffer (Pierce Biotechnology). Films were scanned and quantification of the bands was performed using Image J software http://rsbweb.nih.gov/ij/.

[4] = tested on: p27 protein levels in LNCaP cells; test: Immunoblot quantification of p27, LNCaP; format: cell-based, human; conditions: LNCaP, 24 h; SMIPs 40 μM, MG132 20 μM, bortezomib 100 nM
Protocol: as §1

[5] = tested on: p27 protein levels in PC3 cells; test: Immunoblot quantification of p27, PC3; format: cell-based, human; conditions: PC3, 24 h; SMIPs 40 μM, MG132 20 μM, bortezomib 100 nM
Protocol: as §1

[6] = tested on: p21 protein levels in PC3 cells; test: Immunoblot quantification of p21, PC3; format: cell-based, human; conditions: PC3, 24 h; SMIPs 40 μM, MG132 20 μM, bortezomib 100 nM
Protocol: as §1

[7] = tested on: p27 protein levels in DU145 cells; test: Immunoblot quantification of p27, DU145; format: cell-based, human; conditions: DU145, 24 h; SMIPs 40 μM, MG132 20 μM, bortezomib 100 nM
Protocol: as §1

[8] = tested on: p21 protein levels in DU145 cells; test: Immunoblot quantification of p21, DU145; format: cell-based, human; conditions: DU145, 24 h; SMIPs 40 μM, MG132 20 μM, bortezomib 100 nM
Protocol: as §1

[9] = tested on: p27 protein levels in HeLa cells; test: Immunoblot quantification of p27, HeLa; format: cell-based, human; conditions: HeLa, 24 h; SMIPs 40 μM, MG132 20 μM, bortezomib 100 nM
Protocol: as §1

[10] = tested on: p21 protein levels in HeLa cells; test: Immunoblot quantification of p21, HeLa; format: cell-based, human; conditions: HeLa, 24 h; SMIPs 40 μM, MG132 20 μM, bortezomib 100 nM
Protocol: as §1

[11] = tested on: p27 protein levels in IMR90 cells; test: Immunoblot quantification of p27, IMR90; format: cell-based, human; conditions: IMR90, 24 h; SMIPs 40 μM, MG132 20 μM, bortezomib 100 nM
Protocol: as §1

[12] = tested on: p21 protein levels in IMR90 cells; test: Immunoblot quantification of p21, IMR90; format: cell-based, human; conditions: IMR90, 24 h; SMIPs 40 μM, MG132 20 μM, bortezomib 100 nM
Protocol: as §1

[13] = tested on: polyubiquitylated proteins in LNCaP-S14 cells; test: Anti-ubiquitin immunoblot of total lysate; format: cell-based, human; conditions: LNCaP-S14, SMIPs 20 and 40 μM, MG132 20 μM, bortezomib 100 nM, 24 h
Protocol: as §1

Compound	Z score (aver) ([1]; nuclear p27 in LNCaP-S14 cells)	Clasf ([1]; S = strong, M = medium, W = weak by Z score)	IC50 [2] [nM]	p27 protein level (immunoblot, DMSO = 1.0) [3]	p27 protein level (immunoblot, DMSO = 1.0) [4]	p27 protein level (immunoblot, DMSO = 1.0) [5]	p21 protein level (immunoblot, DMSO = 1.0) [6]	p27 protein level (immunoblot, DMSO = 1.0) [7]	p21 protein level (immunoblot, DMSO = 1.0) [8]	p27 protein level (immunoblot, DMSO = 1.0) [9]	p21 protein level (immunoblot, DMSO = 1.0) [10]	p27 protein level (immunoblot, DMSO = 1.0) [11]	p21 protein level (immunoblot, DMSO = 1.0) [12]	accumulation of polyubiquitylated proteins [13]
CC(C)(C)c1cc(C=C(C#N)C#N)cc(C(C)(C)C)c1O [1362L21]	6.21	S (strong (Z score > 5))	1200											
CC(C)C[C@H](NC(=O)[C@H](Cc1ccccc1)NC(=O)c1cnccn1)B(O)O [Bortezomib, reference compound]				1.8	2.1	2.5 ± 1.0	4.7 ± 1.4	1.7 ± 0.5	2.5 ± 0.4	1.3 ± 0.2	2.2 ± 0.8	1.8 ± 0.0	1.8 ± 0.4	readily seen

Reference: publication PMC3025922 (BMC Biology, 2010)
